# Test results reported in ChEMBL document CHEMBL1148983, “A diketopiperazine dimer from a marine-derived isolate of Aspergillus niger” (J Nat Prod, 2004).
# Columns and labels:
# [1] = Inhibition of mammalian 5'-Cap- RNA dependent translation in human HeLa cells after 60 mins by luciferase reporter gene assay; type: functional, cell-based; settings: 1 h
# [2] = Inhibition of viral IRES-mediated translation in human HeLa cells after 60 mins by luciferase reporter gene assay; type: functional, cell-based; settings: 1 h
SMILES,IC50 [1] [µM],IC50 [2] [µM]
COc1cc(O)cc2cc3oc(C)cc(=O)c3c(O)c12,80,44
CC(C)C[C@H]1NC(=O)[C@H]2C[C@@]3([C@@]45C[C@@H]6C(=O)N[C@H](C(C)C)C(=O)N6[C@@H]4Nc4ccccc45)c4ccccc4N[C@H]3N2C1=O,> 100,> 100
COc1cc(O)cc2cc(O)c3c(=O)cc(C)oc3c12,> 100,> 100
COc1cc(C)c2c(OC)cc(=O)oc2c1-c1c(O)cc(C)c2c(OC)cc(=O)oc12 [DEMETHYLKOTANIN],> 100,> 100
